Source: patent US10435361B2, “Kinase inhibitors” (Topivert Pharma Limited, priority 2013, dated 2019)
Read-outs that look alike come from different tables or passages of the source.

Tests used:
[1] = Plasma pharmacokinetics and total colon tissue distribution in mice, single oral administration; format: in vivo, C57BL/6 mice; settings: male, C57BL/6, mouse, 5 mg/kg, read-out: Median plasma concentration
Description: (§1) Studies were conducted by Sai Life Sciences (Hinjewadi, Pune, India) to investigate the plasma pharmacokinetics and total colon tissue distribution of compounds of the invention. In particular, pharmacokinetic studies were carried out in: • male C57BL/6 mice, following a single oral administration; and • male Wistar rats following a single intravenous or oral administration.

[2] = Plasma pharmacokinetics in rats, single intravenous or oral administration; format: in vivo; settings: male, Wistar, rat; for clearance: rats, intravenous 0.25 mg/kg
Description: as §1

[3] = Analysis of metabolites after incubation with hepatocytes; format: in vitro ADME; settings: rat, Cynomolgus macaque, human hepatocytes
Description: Studies were conducted by BioFocus (Saffron Walden, UK) to determine the metabolic fate of the compound of Example 16 following incubation with rat, Cynomolgus macaque or human hepatocytes.
Separate incubations (n=3) of the compound of Example 16 (10 μM initial concentration) or DMSO control, were performed with cryopreserved hepatocytes from each species (0.5 million cell/mL) at 37° C. for 0, 60 and 90 minutes before termination of reactions and compound extraction with acetonitrile. Sample replicates were pooled prior to analysis.
Potential metabolites were identified using time-of-flight (TOF) and triple quadruple (TQ) mass spectrometers.

[4] = tested on: Salmonella typhimurium TA98; assay: Bacterial reverse mutation screen, strain TA98; format: cell-based; settings: presence or absence of S-9 mix; up to 1000 μg/plate analysable
Description: (§2) Studies were conducted by Sequani (Ledbury, Herefordshire, UK) to assess compounds of the invention for their ability to induce mutations in two histidine dependent auxotrophic mutants of Salmonella typhimurium, strains TA98 and TA100 in vitro.
(§3) The mutation screen was conducted using the plate incorporation method and was performed in both the presence and absence of S-9 mix (a liver post-mitochondrial fraction derived from the livers of Aroclor 1254 treated rats). The bacteria were exposed to test compounds dissolved in dimethylsulphoxide, which solvent was also used as the negative control. The dose levels used were 0.32, 1.6, 8, 40, 200, 1000 or 5000 μg/plate.
(§4) Precipitation was also noted in both strains at 1000 μg/plate in the presence and absence of S-9 mix.

[5] = tested on: Salmonella typhimurium TA100; assay: Bacterial reverse mutation screen, strain TA100; format: cell-based; settings: presence or absence of S-9 mix; up to 1000 μg/plate analysable
Description: as §2, §3, §4

Lewis rats = assay: Endotoxin-induced uveitis in rats; format: in vivo; settings: rats treated with intravitreal endotoxin LPS
Description: Male, Lewis rats (6-8 weeks old, Charles River UK Limited) are housed in cages of 3 at 19-21° C. with a 12 h light/dark cycle (07:00/19:00) and fed a standard diet of rodent chow and water ad libitum. Non-fasted rats are weighed, individually identified on the tail with a permanent marker, and receive a single intravitreal administration into the right vitreous humor (5 μL dose volume) of 100 ng/animal of LPS (Escherichia coli 0111:B4 prepared in PBS, Sigma Aldrich, UK) using a 32-gauge needle. Untreated rats are injected with PBS. Test compound, dexamethasone (Dex) or vehicle (20% hydroxypropyl-β-cyclodextrin, 0.1% HPMC, 0.01% Benzalkonium chloride, 0.05% EDTA, 0.7% NaCl in deionised water) are administered by the topical route onto the right eye (10 μL) of animals 30 minutes prior to LPS, at the time of LPS administration, and 1, 2 and 4 hours post LPS administration. Before administration, the solution or suspension to be administered is agitated for 5 minutes to ensure a uniform suspension. 6 hours after LPS dosing, animals are euthanized by overdose with pentobarbitone (i.v.). Following euthanasia, the right eye of each animal is enucleated and dissected into front (anterior) and back (posterior) sections around the lens. Each section is weighed and homogenised in 500 μL of sterile phosphate buffered saline followed by 20 minutes centrifugation at 12000 rpm at 4° C. The resulting supernatant is divided into 3 aliquots and stored at −80° C. until subsequent cytokine analysis by R&D DuoSet ELISA.

d-U937 cells = assay: LPS-induced TNFα/IL-8 release in d-U937 cells; format: cell-based; settings: Homo sapiens, dU937, assay (aa)
Description: U937 cells, a human monocytic cell line, are differentiated to macrophage-type cells by incubation with phorbol myristate acetate (PMA; 100 ng/mL) for 48 to 72 hr. Cells are pre-incubated with final concentrations of test compound for 2 hr and are then stimulated with 0.1 μg/mL of LPS (from E. Coli: 0111:B4, Sigma) for 4 hr. The supernatant is collected for determination of TNFα and IL-8 concentrations by sandwich ELISA (Duo-set, R&D systems). […] The relative 50% effective concentration (REC50) is determined from the resultant concentration-response curve. The inhibition of IL-8 production is calculated at each concentration of test compound by comparison with vehicle control.

[6] = po, 5 mg/kg, read-out: Median plasma concentration

C#Cc1cc(Nc2nccc(Oc3ccc(NC(=O)Nc4cc(C(C)(C)C)cc(NS(C)(=O)=O)c4OC)c4ccccc34)n2)cc(C(=O)NCCOCCOCCOC)c1 [Example 16, 3-((4-((4-(3-(5-(tert-Butyl)-2-methoxy-3-(methylsulfonamido)phenyl)ureido)naphthalen-1-yl)oxy)pyrimidin-2-yl)amino)-5-ethynyl-N-(2-(2-(2-methoxyethoxy)ethoxy)ethyl)benzamide]
concentration at 1 h [1]: 0 ng/mL | concentration at 2 h [1]: 0 ng/mL | concentration at 4 h [1]: 0 ng/mL | concentration at 6 h [1]: 0 ng/mL | concentration at 8 h [1]: 0 ng/mL | concentration at 12 h [1]: 0 ng/mL | concentration at 24 h [1]: 0 ng/mL | concentration at 0.25 h [2, 6]: 0 ng/mL | concentration at 0.5 h [2, 6]: 0 ng/mL | concentration at 1 h [2, 6]: 0 ng/mL | concentration at 2 h [2, 6]: 0 ng/mL | concentration at 4 h [2, 6]: 0 ng/mL | concentration at 6 h [2, 6]: 0 ng/mL | concentration at 8 h [2, 6]: 0 ng/mL | concentration at 12 h [2, 6]: 0 ng/mL | concentration at 24 h [2, 6]: 0 ng/mL | clearance [2]: 4.8 mL/min/kg | number of metabolites formed in hepatocytes ([3]; 10 μM, 0, 60 and 90 minutes): 9 | metabolism at the naphthalene moiety ([3]; 10 μM): no products were noted that could be connected to metabolism at the naphthalene moiety | increases in revertant colonies, strain TA98 [4]: no dose-related or statistically significant increases in revertant colonies | increases in revertant colonies, strain TA100 [5]: no dose-related or statistically significant increases in revertant colonies

COc1cc(Nc2cc(Oc3ccc(NC(=O)Nc4cc(C(C)(C)C)cc(NS(C)(=O)=O)c4OC)c4ccccc34)ccn2)cc(C(=O)NCCN2CCOCC2)c1 [Example 27, 3-((4-((4-(3-(5-(tert-Butyl)-2-methoxy-3-(methylsulfonamido)phenyl)ureido)naphthalen-1-yl)oxy)pyridin-2-yl)amino)-5-methoxy-N-(2-morpholinoethyl)benzamide]
cytokine levels in the anterior and posterior segments of the eyes (Lewis rats): significantly reduced | clearance [2]: 7.1 mL/min/kg | increases in revertant colonies, strain TA98 [4]: no dose-related or statistically significant increases in revertant colonies | increases in revertant colonies, strain TA100 [5]: no dose-related or statistically significant increases in revertant colonies

COCCOCCOCCOc1cc(Nc2nccc(Oc3ccc(NC(=O)Nc4cc(C(C)(C)C)cc(NS(C)(=O)=O)c4OC)c4ccccc34)n2)cc(OC)c1 [Example 4, N-(5-(tert-Butyl)-2-methoxy-3-(3-(4-((2-((3-methoxy-5-(2-(2-(2-methoxyethoxy)ethoxy)-ethoxy)phenyl)amino)pyrimidin-4-yl)oxy)naphthalen-1-yl)ureido)phenyl)methanesulfonamide]
IC50 (d-U937 cells; method: relative to 10 μg/mL BIRB796 (REC50), read-out: IC50 Values for Inhibition of Cytokine Release dU937 cells TNFα): 1 nM | IC50 (d-U937 cells; read-out: IC50 Values for Inhibition of Cytokine Release dU937 cells IL-8): 0.8 nM | cytokine levels in the anterior and posterior segments of the eyes (Lewis rats): significantly reduced | clearance [2]: 7.9 mL/min/kg | increases in revertant colonies, strain TA98 [4]: no dose-related or statistically significant increases in revertant colonies | increases in revertant colonies, strain TA100 [5]: no dose-related or statistically significant increases in revertant colonies
